These results are taken from patent US12565497B2 (Hoffmann-La Roche Inc., priority 2020, dated 2026).

This experiment has as its target Recombinant human Mat2a (Homo sapiens (Human), UniProt P31153). The experiment is described as follows: Determination of Mat2A activity (384 well absorbance-based assay, Biomol Green). The class given is biochemical. The conditions noted are these: 12.5 nM Mat2A, 100 μM ATP and Methionine, 2% DMSO, 120 minutes at RT, absorbance at 635 nm; read-out: MAT2A_LEC IC50 (uM) (Num). The procedure, abridged:
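Recombinant human Mat2A (12.5 nM) preincubated 15 min at RT with compound (10 μM to 508 pM) in 50 mM HEPES pH 7.5, 50 mM KCl, 50 mM MgCl2, 0.01% Tween 20, 10 mM DTT, 2% DMSO. Reaction started with ATP and methionine (100 μM each), run 120 min at RT, then stopped with Biomol Green; A635 read after 30 min.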

Sequence of Recombinant human Mat2a (P31153 whole entry): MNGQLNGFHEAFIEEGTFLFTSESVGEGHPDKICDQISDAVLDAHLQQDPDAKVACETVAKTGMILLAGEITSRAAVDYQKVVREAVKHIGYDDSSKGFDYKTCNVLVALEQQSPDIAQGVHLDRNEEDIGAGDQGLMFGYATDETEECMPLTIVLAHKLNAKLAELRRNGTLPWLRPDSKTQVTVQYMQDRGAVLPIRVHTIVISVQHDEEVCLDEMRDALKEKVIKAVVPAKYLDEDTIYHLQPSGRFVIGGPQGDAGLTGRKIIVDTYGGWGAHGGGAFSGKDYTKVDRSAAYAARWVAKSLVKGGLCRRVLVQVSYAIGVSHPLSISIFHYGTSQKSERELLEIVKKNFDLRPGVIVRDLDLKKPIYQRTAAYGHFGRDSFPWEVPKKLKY

As usually defined, the IC50 is the midpoint of a concentration-inhibition curve. `Cc1cc(-c2c(C(=O)N(C)C)ncc3[nH]nc(C4CC4)c23)ccc1S(C)(=O)=O` [Example 83, 3-cyclopropyl-N,N-dimethyl-4-(3-methyl-4-(methylsulfonyl)phenyl)-1H-pyrazolo[3,4-c]pyridine-5-carboxamide]: the IC50 stood at 0.5 µM. For the molecule `Cc1cc(-c2c(C3CC3)ncc3[nH]nc(C4CC4)c23)ccc1S(C)(=O)=O` [Example 85], the IC50 stood at 0.02 µM. On to `CNC(=O)c1c(F)cc2[nH]nc(C3CC3)c2c1-c1ccc(S(C)(=O)=O)c(C)c1` [Example 88, 3-cyclopropyl-6-fluoro-N-methyl-4-(3-methyl-4-(methylsulfonyl)phenyl)-1H-indazole-5-carboxamide], for which the IC50 was below 0.013 µM. For `CNC(=O)c1ncc2[nH]nc(C3CC3)c2c1-c1ccc(S(=O)(=O)C2CC2)c(C)c1` [Example 89, 3-cyclopropyl-4-(4-cyclopropylsulfonyl-3-methyl-phenyl)-N-methyl-1H-pyrazolo[3,4-c]pyridine-5-carboxamide] the value was 0.035 µM; for `Cc1cc(-c2c(C#N)c(Cl)cc3[nH]nc(C4CC4)c23)ccc1S(C)(=O)=O` [Example 90, 6-chloro-3-cyclopropyl-4-(3-methyl-4-methylsulfonylphenyl)-1H-indazole-5-carbonitrile], below 0.013 µM; for `Cc1cc(-n2c(=O)ccc3[nH]nc(OC(F)(F)F)c32)ccc1S(C)(=O)=O` [Example 91, 4-(3-methyl-4-methylsulfonyl-phenyl)-3-(trifluoromethoxy)-1H-pyrazolo[4,3-b]pyridin-5-one], below 0.013 µM.

Take `Cc1cc(-n2c(=O)ccc3[nH]cc(C4CC4)c32)ccc1S(C)(=O)=O` [Example 92, 3-cyclopropyl-4-(3-methyl-4-methylsulfonyl-phenyl)-1H-pyrrolo[3,2-b]pyridin-5-one]: the IC50 amounted to 0.029 µM. For `Cc1cc(-c2c(S(C)(=O)=O)ccc3[nH]nc(OC(F)(F)F)c23)ccc1S(C)(=O)=O` [Example 93, 4-(3-methyl-4-(methylsulfonyl)phenyl)-5-(methylsulfonyl)-3-(trifluoromethoxy)-1H-indazole] the value was below 0.013 µM; for `CS(=O)(=O)c1ccc(-c2c(S(C)(=O)=O)ccc3[nH]nc(C4CC4)c23)cc1C(F)F` [Example 94, 3-cyclopropyl-4-(3-(difluoromethyl)-4-(methylsulfonyl)phenyl)-5-(methylsulfonyl)-1H-indazole], 0.05 µM; for `CNC(=O)c1ncc2[nH]nc(C3CC3)c2c1-c1cc(C)c(S(=O)(=O)C2CC2)cc1F` [Example 96, 3-cyclopropyl-4-(4-cyclopropylsulfonyl-2-fluoro-5-methyl-phenyl)-N-methyl-1H-pyrazolo[3,4-c]pyridine-5-carboxamide], below 0.013 µM. As for `CNC(=O)c1ncc2[nH]nc(C3CC3)c2c1-c1cc(C)c(S(C)(=O)=O)cc1F` [Example 97, 3-cyclopropyl-4-(2-fluoro-5-methyl-4-methylsulfonyl-phenyl)-N-methyl-1H-pyrazolo[3,4-c]pyridine-5-carboxamide], the IC50 was below 0.013 µM. Next, `Cc1cc(-c2c(C(N)=O)ncc3[nH]nc(OC(F)F)c23)ccc1S(C)(=O)=O` [Example 98, 3-(difluoromethoxy)-4-(3-methyl-4-methylsulfonyl-phenyl)-1H-pyrazolo[3,4-c]pyridine-5-carboxamide]: below 0.013 µM; `CC(=O)NCCOCCNc1cnc(-c2ccc(S(C)(=O)=O)c(C)c2)c2c(C3CC3)n[nH]c12` [Example 99, N-[2-[2-[[3-cyclopropyl-4-(3-methyl-4-methylsulfonyl-phenyl)-1H-pyrazolo[4,3-c]pyridin-7-yl]amino]ethoxy]ethyl]acetamide]: 0.07 µM.

`CC(=O)NCCCNc1cnc(-c2ccc(S(C)(=O)=O)c(C)c2)c2c(C3CC3)n[nH]c12` [Example 100, N-[3-[[3-cyclopropyl-4-(3-methyl-4-methylsulfonyl-phenyl)-1H-pyrazolo[4,3-c]pyridin-7-yl]amino]propyl]acetamide]: the IC50 was 0.03 µM. Consider `Cc1cc(-c2ncc(NCCOCCN)c3[nH]nc(C4CC4)c23)ccc1S(C)(=O)=O` [Example 101, N-[2-(2-aminoethoxy)ethyl]-3-cyclopropyl-4-(3-methyl-4-methylsulfonyl-phenyl)-1H-pyrazolo[4,3-c]pyridin-7-amine], for which the IC50 was determined as 0.14 µM. For `Cc1cc(-c2ncc(NCCCCN)c3[nH]nc(C4CC4)c23)ccc1S(C)(=O)=O` [Example 102, N′-[3-cyclopropyl-4-(3-methyl-4-methylsulfonyl-phenyl)-1H-pyrazolo[4,3-c]pyridin-7-yl]butane-1,4-diamine] the value was 0.06 µM; for `CC(=O)NCCCCNc1cnc(-c2ccc(S(C)(=O)=O)c(C)c2)c2c(C3CC3)n[nH]c12` [Example 103, N-[4-[[3-cyclopropyl-4-(3-methyl-4-methylsulfonyl-phenyl)-1H-pyrazolo[4,3-c]pyridin-7-yl]amino]butyl]acetamide], 0.04 µM; for `Cc1cc(-c2ncc(NCCCN)c3[nH]nc(C4CC4)c23)ccc1S(C)(=O)=O` [Example 104, N′-[3-cyclopropyl-4-(3-methyl-4-methylsulfonyl-phenyl)-1H-pyrazolo[4,3-c]pyridin-7-yl]propane-1,3-diamine], 0.04 µM.

As to `Cc1cc(-c2c(C#N)ncc3[nH]nc(OC(F)F)c23)ccc1S(=O)(=O)C(F)F` [Example 105, 3-(difluoromethoxy)-4-(4-((difluoromethyl)sulfonyl)-3-methylphenyl)-1H-pyrazolo[3,4-c]pyridine-5-carbonitrile], the IC50 was below 0.013 µM.

`Cc1cc(-c2c(C(N)=O)ncc3[nH]nc(OC(F)F)c23)ccc1S(=O)(=O)C(F)F` [Example 106, 3-(difluoromethoxy)-4-[4-(difluoromethylsulfonyl)-3-methyl-phenyl]-1H-pyrazolo[3,4-c]pyridine-5-carboxamide]: the IC50 was below 0.013 µM. For `Cc1cc(-c2c(C(=O)NC3COC3)ncc3[nH]nc(OC(F)F)c23)ccc1S(=O)(=O)C(F)F` [Example 107, 3-(difluoromethoxy)-4-[4-(difluoromethylsulfonyl)-3-methyl-phenyl]-N-(oxetan-3-yl)-1H-pyrazolo[3,4-c]pyridine-5-carboxamide] the value was 0.013 µM; for `CNC(=O)c1ncc2[nH]nc(OC(F)F)c2c1-c1ccc(S(=O)(=O)C(F)F)c(C)c1` [Example 108], 0.015 µM; for `CNC(=O)c1ncc2[nH]nc(OC(F)F)c2c1-c1ccc(S(C)(=O)=O)c(C)c1` [Example 110, 3-(difluoromethoxy)-N-methyl-4-(3-methyl-4-methylsulfonyl-phenyl)-1H-pyrazolo[3,4-c]pyridine-5-carboxamide], below 0.013 µM. Next, `Cc1cc(-c2c(S(=O)(=O)C3COC3)ccc3[nH]nc(OC(F)F)c23)ccc1S(C)(=O)=O` [Example 111, 3-(difluoromethoxy)-4-(3-methyl-4-methylsulfonyl-phenyl)-5-(oxetan-3-ylsulfonyl)-1H-indazole]: below 0.013 µM; `CN=S(C)(=O)c1ccc2[nH]nc(C3CC3)c2c1-c1ccc(S(C)(=O)=O)c(C)c1` (stereo not drawn) [Example 113, [3-cyclopropyl-4-(3-methyl-4-methylsulfonyl-phenyl)-1H-indazol-5-yl]-methyl-methylimino-oxo-λ^6-sulfane]: 0.31 µM. On to `Cc1cc(-c2c(S(=O)(=O)N(C)C)ccc3[nH]nc(C4CC4)c23)ccc1S(C)(=O)=O` [Example 114, 3-cyclopropyl-N,N-dimethyl-4-(3-methyl-4-methylsulfonyl-phenyl)-1H-indazole-5-sulfonamide], for which the IC50 amounted to 0.03 µM. For `CNS(=O)(=O)c1ccc2[nH]nc(C3CC3)c2c1-c1ccc(S(C)(=O)=O)c(C)c1` [Example 115, 3-cyclopropyl-N-methyl-4-(3-methyl-4-methylsulfonyl-phenyl)-1H-indazole-5-sulfonamide] the value was 0.03 µM; for `Cc1cc(-c2c(C(N)=O)ncc3[nH]nc(OC(F)F)c23)ccc1S(=O)(=O)C1CC1` [Example 116, 4-(4-cyclopropylsulfonyl-3-methyl-phenyl)-3-(difluoromethoxy)-1H-pyrazolo[3,4-c]pyridine-5-carboxamide], below 0.013 µM; for `Cc1cc(-c2c(S(=O)(=O)C3CC3)ccc3[nH]nc(OC(F)F)c23)ccc1S(C)(=O)=O` [Example 118, 5-cyclopropylsulfonyl-3-(difluoromethoxy)-4-(3-methyl-4-methylsulfonyl-phenyl)-1H-indazole], below 0.013 µM. Take `Cc1cc(-c2c(S(C)(=O)=O)ccc3[nH]nc(OC(F)F)c23)c(F)cc1S(C)(=O)=O` [Example 119, 3-(difluoromethoxy)-4-(2-fluoro-5-methyl-4-methylsulfonyl-phenyl)-5-methylsulfonyl-1H-indazole]: the IC50 stood at 0.02 µM.
